A short description of data set [1]: Solubility of benzyl hemiformal in B7 diesel fuel (petrodiesel with 7% by volume of biodiesel). Format: physicochemical. Particulars: for Solubility of benzyl hemiformal in B7 diesel fuel: undiluted BHF. The text has this: 2) Benzyl Hemiformal—Solubility in B7 Diesel Fuel (Petrodiesel with 7% by Volume of Biodiesel)
Data set [2] can be described thus: Solubility of benzyl hemiformal in petrodiesel without biodiesel content. Format: physicochemical. Particulars: for Solubility of benzyl hemiformal in petrodiesel 100%: undiluted BHF stirred into petrodiesel. On the procedure: 1) Benzyl Hemiformal—Solubility in Petrodiesel without Biodiesel Content
While stirring, BHF was mixed with petrodiesel in 0.01% steps. The following solubilities of BHF in petrodiesel were determined: […]

With `OCOCc1ccccc1` [benzyl hemiformal], the “Solubility of benzyl hemiformal in B7 diesel fuel” value in data set [1] (0.01 % BHF) is reported as “dissolved to give clear solution”; in data set [1] (0.02 % BHF) it was “dissolved to give clear solution”; in data set [1] (0.03 % BHF) it was “undissolved fractions”; in data set [1] (0.04 % BHF) it was “undissolved fractions”. In data set [1] (B7 diesel fuel), the “Amount of undiluted BHF that can be incorporated into B7 diesel fuel to give a clear solution” value is “approx. 200 ppm”. Besides, the “Solubility of benzyl hemiformal in petrodiesel 100%” value in data set [2] (0.01 % BHF) was “dissolved to give clear solution”; in data set [2] (0.02 % BHF), “dissolved to give clear solution”; in data set [2] (0.03 % BHF) it was “undissolved fractions”; in data set [2] (0.04 % BHF), “undissolved fractions”. In addition, the “Solubility of BHF in petrodiesel (in words)” value in data set [2] (room temperature) was “only poorly soluble”. For the same compound, the “Amount of undiluted BHF that can be incorporated into petrodiesel to give a clear solution” value in data set [2] (undiluted BHF, petrodiesel without biodiesel) is “approx. 200 ppm”.

The record behind these values is patent publication US11549075B2, “Benzyl hemiformal-containing biodiesel mixtures” (LANXESS Deutschland GmbH, priority 2019, dated 2023).
